Test results taken from article PMC12336229, “Peptide-mimetics derived from leucyl-tRNA synthetase are potential agents for the therapy of mt-tRNA related diseases” (Frontiers in Pharmacology, 2025).

Key:
[1] = Plasma stability (UPLC-MS); assay type: in vitro ADME, human; details: 37°C
Method: To assess whether the β32_33 peptide, PMT, PMT-8a and PMT-8b peptide-mimetics are stable in blood, we set up a chromatographic assay able to evaluate compound concentration after incubation in human plasma.
Four different samples from healthy volunteers were used. Blood was drawn by venepuncture in vacutainer containing EDTA as an anticoagulant. Plasma was separated by centrifugation and immediately used for the experiments. Each compound was dissolved in 500 μL plasma at a final concentration of 0.2 mM and split into two aliquots, one of which was immediately analysed to assess the basal compound level (T0); the other was incubated at 37°C under gentle shaking, and the amount of each compound was measured at different time points (i.e., 1.5, 3, 6 and 72 h).
To perform chromatographic analyses, the samples were treated with 3 volumes of acetonitrile containing 1% formic acid and then extracted by using the Ostro™ pass-through sample preparation system to remove proteins and phospholipids. Samples were dried under vacuum, resuspended in 100 μL of 0.1% formic acid containing 5% acetonitrile, and then injected directly onto the chromatographic column.
Chromatographic analyses were performed on a Water Acquity H-Class UPLC system (Waters, Milford, MA, United States), including a quaternary solvent manager (QSM), a sample manager with a flow-through needle system (FTN), a photodiode array detector (PDA) and a single-quadruple mass detector with electrospray ionization source (ACQUITY QDa). Analyses were performed on a reverse phase C18 column (75 mm × 3.2 mm i. d., 2.5 μm particle size). The mobile phase was solvent A, 0.1% formic acid in water, and solvent B, 0.1% formic acid in acetonitrile. The flow rate was 0.5 mL/min, the column temperature was set at 25°C and the elution was performed by linearly increasing the concentration of solvent B up to 70% in 7 min. Mass spectrometric detection was performed in the positive electrospray ionization mode, using nitrogen as the nebulizer gas. Analyses were performed in the Total Ion Current (TIC) mode with a mass range of 100–1200 m/z. The capillary voltage was 0.8 kV, cone voltage 8 V, ion source temperature 120°C and probe temperature 600°C. Quantification was performed by Selected Ion Recording (SIR): at m/z = 917.88, corresponding to the [M+2H]^2+ ion obtained from either β32_33 peptide or PMT; at m/z = 961.42, corresponding to the [M + H] ^+ obtained from PMT-8a; and at m/z = 869.48, corresponding to the [M + H]^+ ion obtained from PMT-8b.

[2] = system: Adult C57BL/6 male mice; assay: Morphological analysis of selected organs (hematoxylin and eosin); assay type: in vivo, mouse; details: 1, 5 and 10 mg/kg i.v.; hematoxylin and eosin sections; treated vs controls
Method: (§1) After the test, mice were sacrificed under general anaesthesia (4% isoflurane in medical air) by cardiac puncture to withdraw blood, brain, heart, liver, kidney, spleen, and lymph nodes, which were collected into tubes with buffered formalin and stored at +4°C.
At the end of the tolerability test, tissues collected from animals injected with saline (n = 5) or treated with 1, 5 and 10 mg/kg of PMT (n = 10), were formalin-fixed and paraffin-embedded. Five µm-thick sections were obtained from the paraffin blocks and stained with hematoxylin and eosin for histologic examination.

[3] = system: Adult C57BL/6 male mice; assay: Tolerability in animals (i.v., scores, body weight, grid-hanging test); assay type: in vivo
Method: Sixty adult C57BL/6 male mice were initially included in the study. Twenty animals were dedicated to in vivo/ex vivo biodistribution of the radiolabelled PMT ^64Cu-PMT. The evaluation was carried out at four time points: 1, 3, 24 and 48 h. Forty animals were dedicated to tolerability studies with increasing PMT concentration: 1, 5, 10 and 50 mg/kg PMT or saline, i. v. (n = 10 per group). […] Therefore, only three groups of ten animals were dedicated to the tolerability test, and fifty C57BL/6 male mice were employed for the current study in total. […] Due to the rapidity of death, and the hydrophobic character of the C-terminal region of the PMT (see the Discussion section), it is possible that PMT aggregates obstructed one or more small vessels, causing micro-infarctions in vital organs (e.g., lung, heart, brain).
Adult C57BL/6 male mice were used to determine the general tolerability of i. v. administered PMT and identify the Maximum Tolerated Dose (MTD). To this purpose, animals were divided into four groups (n = 10 each) and injected in a tail vein with either saline (controls) or PMT freshly dissolved in saline at three scalar doses (1, 5 or 10 mg/kg). Each group was randomly divided in two subgroups (n = 5 each). Blood ocular withdrawal was performed at 1 h and 48 h post-injection for each subgroup, respectively. During this procedure, animals were anaesthetized with isoflurane (2% in medical air) and monitored until awakening.
The effect of PMT administration was evaluated every 2 days by observation of the animals and application of the following criteria and scores (see Supplementary Table S1): body weight loss (score: 1–5); coat conditions (score: 1–3); dehydration (score: 1–3); respiration (score: 1–3); spontaneous behaviour (score: 0–5); reaction to handling (score: 0–3) (IACUC of the San Raffaele Research Institute and FELASA Glossary 2015 ([Fentener van Vlissingen et al., 2015]).
The observation was carried out for 2 weeks post peptide injection. At the end, all the animals underwent a grid-hanging test to measure muscular strength performances after PMT or saline treatment ([Gayi et al., 2018]).
After a period of habituation to the metallic grid, mice were placed individually on top of a metallic grid (40 × 40 cm, 1.3 cm square mesh) suspended 50 cm above an empty cage. The grid was turned upside down and latency to fall was measured up to a fixed limit of 600 s. Each mouse performed three trials and the longest holding time (s) among them was multiplied by the animal’s body weight (g) to calculate Holding impulse (g*s).
as §1
Data on PMT tolerability in animals (i.e., body mass monitoring and grip-hanging test) are expressed as mean ± SD and analysed using one-way ANOVA corrected for multiple comparison Turkey test.

CC[C@@H](C)[C@@H](NC(=O)[C@@H](CC(C)C)NC(=O)[C@@H](C)NC(=O)[C@H](NC(=O)[C@@H](CCCNC(=N)N)NC(=O)[C@H]1CCCN1C(=O)[C@@H](CO)NC(=O)[C@@H](CC(C)C)NC(=O)[C@@H](Cc1ccccc1)NC(=O)[C@@H](CO)NC(=O)[C@@H](CCCCN)NC(=O)[C@H](N)CCCCN)[C@H](C)O)C(=O)N[C@H](CC(N)=O)C(=O)N[C@H](Cc1ccccc1)C(=O)N[C@H](CC(C)C)C(=O)N[C@@H](C(N)=O)C(C)C [PMT]
remaining at 72 h, 0.2 mM ([1]; 72 h, human EDTA plasma from four healthy volunteers, gentle shaking, UPLC-MS (SIR), peak area vs time 0, read-out: Amount of detectable compound after incubation with human plasma): ~25% | Plasma stability compared with β32_33 peptide ([1]; all time points (1.5, 3, 6, 72 h), human plasma, 0.2 mM, UPLC-MS): significantly higher plasma stability | Morphological change in organs or tissues [2]: did not reveal any morphological change | Tolerability after a single i.v. acute administration ([3]; 1, 5 and 10 mg/kg, wild-type mice, 14 days of observation): well tolerated | Mice with decrease of body weight (score 4) ([3]; mouse, in vivo): 1/10 | Mice with mild tachypnoea (score 1) ([3]; mouse, in vivo): 5/10 | Mice with slight decrease of body weight (score 1) ([3]; mouse, in vivo): 5/10 | Mice with slight decrease of body weight (score 1–2) ([3]; mouse, in vivo): 5/10 | Outcome of the highest dose ([3]; mouse, in vivo): died immediately after the administration | Safe dosage ([3]; mouse, in vivo, iv): up to 10 mg/kg | Necropsy finding ([3]; mouse, in vivo, iv, 50 mg/kg): did not highlight any obvious macroscopic effect
